Results from US11459545B2, “Methods to enhance delivery and engraftment of stem cells including the identification of specific prostaglandin E2 receptors” (INDIANA UNIVERSITY RESEARCH AND TECHNOLOGY CORPORATION, priority 2009, dated 2022).

System: CD34+ cells from cord blood
Assay: CXCR4 expression on CD34+ cells after ex vivo pulse exposure (flow cytometry)
Type: cell-based, human
Settings: for up regulation of CXCR4 on the surface of CD34+ cells: cord blood samples, ex vivo pulse exposure, cytometry histograms compared to isotype control (FIG. 1)
Experimental: Un-manipulated hematopoietic grafts or purified hematopoietic stem cell populations (e.g., SKL cells in mice or CD34^+ cells in humans) are incubated with an EP4 specific agonist: 5-[(1E,3R)-4,4-difluoro-3-hydroxy-4-phenyl-1-buten-1-yl]-1-[6-(2H-tetrazol-5R-yl)hexyl]-2-pyrrolidinone (i.e. L-902,688), on ice or at room temperature at concentrations of 0.001-10 microMolar agonist per 1-10 million cells in 1 ml of culture medium, e.g. IMDM, for 15 minutes-6 hrs. After incubation, the cells are washed 3 times in sterile media or saline and administered to recipients, intravenously. L-902,688 was a generous gift from Merck Frosst (Kirkland, Canada) (Young, et al., 2004).
Referring now to FIG. 1. This graph illustrates that treatment of cells with EP4 agonist ex vivo specifically up regulates CXCR4 expression on CD34^+ cells. […] The bar graph indicator data measured from such experiments graphed as a function of different compounds used dmPGE2, Butaprostone, sulprostone and EP4.
Referring now to FIG. 2. This graph illustrates that signaling via the EP4 receptor is responsible for up regulation of CXCR4 expression. […] Treatment with EP4 agonist ex vivo up regulates CXCR4 expression on CD34^+ cells. […] In the bar chart this effort is normalized to 100%. […] The fact that up regulation of CXCR4 by an EP4 selective agonist is blocked by a selective EP4 antagonist, but not by EP1, 2, 3, antagonist, provides additional evidence that up regulation is mediated through the EP4 receptor.

| SMILES | up regulation of CXCR4 on the surface of CD34+ cells | up regulation of CXCR4 expression on CD34+ cells (ex vivo treatment, combined data for 8 cord blood samples (FIG. 2)) |
| --- | --- | --- |
| O=C1CC[C@H](/C=C/[C@@H](O)C(F)(F)c2ccccc2)N1CCCCCCc1nn[nH]n1 [EP4 agonist, 5-[(1E,3R)-4,4-difluoro-3-hydroxy-4-phenyl-1-buten-1-yl]-1-[6-(2H-tetrazol-5R-yl)hexyl]-2-pyrrolidinone] | significant up regulation | about 3 fold |
| CCCCC(C)(C)[C@H](O)/C=C/[C@H]1[C@H](O)CC(=O)[C@@H]1C/C=C\CCCC(=O)O [dmPGE2, 16,16 dimethylprostaglandin E2] | significant up regulation | – |
